# Reference: PubChem BioAssay (NCI)
#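 Assay format: 96-well plates, 48-hour exposure. TGI: concentration producing complete growth inhibition.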
# What was measured:
# Assay in all cases: NCI anticancer screen, dose series, 48 h
# MOLT-4 leukemia = test system: MOLT-4 leukemia
# NCI-H522 lung = test system: NCI-H522 lung
# MDA-MB-435 = test system: MDA-MB-435
# SK-OV-3 ovarian = test system: SK-OV-3 ovarian
# SR leukemia = test system: SR leukemia
# HOP-62 NSCLC = test system: HOP-62 NSCLC
# NCI-H226 lung = test system: NCI-H226 lung
# CAKI-1 renal = test system: CAKI-1 renal
# RPMI-8226 leukemia = test system: RPMI-8226 leukemia
# A498 renal = test system: A498 renal
# HL-60(TB) leukemia = test system: HL-60(TB) leukemia
compound,measurement,setting,value
CN1CC(c2ccccc2)=Cc2c1ccc(N)c2N=N,TGI,MOLT-4 leukemia,> 100 µM
same,TGI,NCI-H522 lung,> 100 µM
same,TGI,MDA-MB-435,> 100 µM
same,TGI,SK-OV-3 ovarian,> 100 µM
same,TGI,SR leukemia,> 100 µM
same,TGI,HOP-62 NSCLC,> 100 µM
same,TGI,NCI-H226 lung,> 100 µM
same,TGI,CAKI-1 renal,67.9 µM
same,TGI,RPMI-8226 leukemia,> 100 µM
CCOC(=O)c1ccc(NC2Oc3cc4c(cc3C(c3cc(OC)c(OC)c(OC)c3)C2C)OCO4)cc1 (configuration not stated),TGI,A498 renal,> 100 µM
same,TGI,MOLT-4 leukemia,11.5 µM
same,TGI,HL-60(TB) leukemia,0.564 µM
same,TGI,NCI-H522 lung,10.6 µM
same,TGI,MDA-MB-435,0.448 µM
same,TGI,SK-OV-3 ovarian,> 21.1 µM
same,TGI,HOP-62 NSCLC,> 71.4 µM
same,TGI,NCI-H226 lung,16 µM
same,TGI,CAKI-1 renal,0.786 µM
same,TGI,RPMI-8226 leukemia,4.92 µM
C=C/C(C)=C/[C@H](C)C(=O)C[C@H](O)CC1CC(=O)NC(=O)C1,TGI,A498 renal,> 100 µM
same,TGI,MOLT-4 leukemia,> 100 µM
same,TGI,HL-60(TB) leukemia,> 100 µM
same,TGI,NCI-H522 lung,> 87.8 µM
same,TGI,SK-OV-3 ovarian,> 100 µM
same,TGI,HOP-62 NSCLC,> 91.1 µM
same,TGI,NCI-H226 lung,> 100 µM
same,TGI,CAKI-1 renal,> 100 µM
same,TGI,RPMI-8226 leukemia,> 100 µM
CC12CC3c4ccccc4CN1C3(c1ccccc1)OC2=O (configuration not stated),TGI,A498 renal,> 100 µM
same,TGI,MOLT-4 leukemia,> 100 µM
same,TGI,HL-60(TB) leukemia,> 100 µM
same,TGI,NCI-H522 lung,> 100 µM
same,TGI,MDA-MB-435,> 100 µM
same,TGI,SK-OV-3 ovarian,> 100 µM
same,TGI,HOP-62 NSCLC,> 100 µM
same,TGI,NCI-H226 lung,> 100 µM
same,TGI,CAKI-1 renal,> 100 µM
Oc1c(OCc2nnc(CCCCCCCCc3nnc(COc4ccc5ccccc5c4O)n3Nc3ccccc3)n2Nc2ccccc2)ccc2ccccc12,TGI,A498 renal,34.3 µM
same,TGI,MOLT-4 leukemia,> 100 µM
same,TGI,NCI-H522 lung,27.3 µM
same,TGI,MDA-MB-435,19.3 µM
same,TGI,SK-OV-3 ovarian,27.3 µM
same,TGI,HOP-62 NSCLC,3.77 µM
same,TGI,NCI-H226 lung,24.1 µM
same,TGI,CAKI-1 renal,13.8 µM
same,TGI,RPMI-8226 leukemia,26.7 µM
CN(C)[C@@H]1C(=O)C(C(N)=O)=C(O)[C@@]2(O)C(=O)C3=C(O)c4c(O)cccc4C[C@H]3C[C@@H]12,TGI,A498 renal,4.56 µM
same,TGI,MOLT-4 leukemia,5.55 µM
same,TGI,NCI-H522 lung,4.29 µM
same,TGI,SK-OV-3 ovarian,3.96 µM
same,TGI,SR leukemia,6.05 µM
same,TGI,HOP-62 NSCLC,4.21 µM
same,TGI,CAKI-1 renal,4.3 µM
COC(=O)Cc1c([C@@H]2Nc3ccccc3[C@H]2CC(=O)OC)[nH]c2ccccc12,TGI,A498 renal,> 100 µM
same,TGI,MOLT-4 leukemia,68.9 µM
same,TGI,MDA-MB-435,84.8 µM
same,TGI,SK-OV-3 ovarian,> 100 µM
same,TGI,SR leukemia,71.4 µM
same,TGI,HOP-62 NSCLC,> 100 µM
same,TGI,NCI-H226 lung,> 100 µM
same,TGI,CAKI-1 renal,> 100 µM
same,TGI,RPMI-8226 leukemia,49.4 µM
CN(NC(=O)c1ccco1)C1=NCCCCN1,TGI,MOLT-4 leukemia,> 100 µM
same,TGI,HL-60(TB) leukemia,> 100 µM
same,TGI,NCI-H522 lung,> 100 µM
same,TGI,MDA-MB-435,> 100 µM
same,TGI,SK-OV-3 ovarian,> 100 µM
same,TGI,SR leukemia,> 100 µM
same,TGI,HOP-62 NSCLC,> 100 µM
same,TGI,NCI-H226 lung,> 100 µM
same,TGI,RPMI-8226 leukemia,> 100 µM
COc1c2nc(CCl)n(C)c(=O)c2c(OC)c2c(=O)n(C)c(CCl)nc12,TGI,A498 renal,5.94 µM
same,TGI,MOLT-4 leukemia,1.54 µM
same,TGI,HL-60(TB) leukemia,2.47 µM
same,TGI,NCI-H522 lung,2.8 µM
same,TGI,MDA-MB-435,7.65 µM
same,TGI,HOP-62 NSCLC,5.7 µM
same,TGI,NCI-H226 lung,13.7 µM
same,TGI,CAKI-1 renal,2.94 µM
same,TGI,RPMI-8226 leukemia,1.64 µM
CC(C)CN1CN(c2ccccc2)C2(CCN(CC(C)(c3ccc(F)cc3)C3OCCO3)CC2)C1=O (configuration not stated),TGI,MOLT-4 leukemia,7.32 µM
same,TGI,HL-60(TB) leukemia,12.8 µM
same,TGI,NCI-H522 lung,12.7 µM
same,TGI,MDA-MB-435,23.5 µM
same,TGI,SK-OV-3 ovarian,14.3 µM
same,TGI,SR leukemia,12.8 µM
same,TGI,HOP-62 NSCLC,13.8 µM
same,TGI,NCI-H226 lung,29.1 µM
same,TGI,CAKI-1 renal,24.4 µM
COc1ccc(-c2nc3ncccn3c2-c2ccc(S(C)=O)cc2)cc1 (configuration not stated),TGI,MOLT-4 leukemia,> 100 µM
same,TGI,HL-60(TB) leukemia,> 100 µM
same,TGI,MDA-MB-435,53.8 µM
same,TGI,SK-OV-3 ovarian,> 100 µM
same,TGI,SR leukemia,> 100 µM
same,TGI,HOP-62 NSCLC,> 100 µM
same,TGI,CAKI-1 renal,65.4 µM
same,TGI,RPMI-8226 leukemia,> 100 µM
c1ccc2[nH]c(-c3nc4ccccc4o3)nc2c1,TGI,A498 renal,> 100 µM
same,TGI,MOLT-4 leukemia,> 100 µM
same,TGI,HL-60(TB) leukemia,> 100 µM
same,TGI,NCI-H522 lung,> 100 µM
same,TGI,SK-OV-3 ovarian,> 100 µM
same,TGI,SR leukemia,> 100 µM
same,TGI,HOP-62 NSCLC,> 100 µM
same,TGI,NCI-H226 lung,> 100 µM
same,TGI,RPMI-8226 leukemia,> 100 µM
C1=C2SSC3=CC=C(SSc4ccc(s4)SSC4=CC=C(SSC(=C1)S2)S4)S3,TGI,A498 renal,> 100 µM
same,TGI,MOLT-4 leukemia,> 100 µM
same,TGI,NCI-H522 lung,> 100 µM
same,TGI,MDA-MB-435,> 100 µM
same,TGI,SK-OV-3 ovarian,> 100 µM
same,TGI,SR leukemia,> 100 µM
same,TGI,HOP-62 NSCLC,> 100 µM
same,TGI,NCI-H226 lung,> 100 µM
same,TGI,CAKI-1 renal,> 100 µM
same,TGI,RPMI-8226 leukemia,> 100 µM
Nc1cc2c(cc1[N+](=O)[O-])[nH]c1c(-c3ccccc3)nccc12,TGI,A498 renal,79.7 µM
same,TGI,MOLT-4 leukemia,19.8 µM
same,TGI,HL-60(TB) leukemia,42.1 µM
same,TGI,NCI-H522 lung,27.5 µM
same,TGI,SK-OV-3 ovarian,55.9 µM
same,TGI,HOP-62 NSCLC,41.4 µM
same,TGI,NCI-H226 lung,56.5 µM
same,TGI,RPMI-8226 leukemia,> 100 µM
CC1=C/C(=C(\c2ccc(N(C)C)cc2)c2ccc([N+](C)(C)C)cc2)C=CC1=[N+](C)C,TGI,A498 renal,36.7 µM
same,TGI,MOLT-4 leukemia,28.2 µM
same,TGI,HL-60(TB) leukemia,5.93 µM
same,TGI,NCI-H522 lung,31.2 µM
same,TGI,SK-OV-3 ovarian,31.6 µM
same,TGI,SR leukemia,4.75 µM
same,TGI,HOP-62 NSCLC,71.5 µM
same,TGI,NCI-H226 lung,33.8 µM
same,TGI,CAKI-1 renal,41.1 µM
same,TGI,RPMI-8226 leukemia,5.44 µM
Cc1ccc(-c2cc(-c3ccco3)nc(N)n2)o1,TGI,MOLT-4 leukemia,> 100 µM
same,TGI,HL-60(TB) leukemia,> 100 µM
same,TGI,NCI-H522 lung,> 100 µM
same,TGI,SR leukemia,> 100 µM
same,TGI,HOP-62 NSCLC,> 100 µM
same,TGI,NCI-H226 lung,> 100 µM
same,TGI,RPMI-8226 leukemia,> 100 µM
O=c1[nH]cnc2c1nnn2CCCn1nnc2c(=O)[nH]cnc21,TGI,A498 renal,> 100 µM
same,TGI,MOLT-4 leukemia,> 100 µM
same,TGI,HL-60(TB) leukemia,> 100 µM
same,TGI,NCI-H522 lung,> 100 µM
same,TGI,SK-OV-3 ovarian,> 100 µM
same,TGI,SR leukemia,> 100 µM
same,TGI,HOP-62 NSCLC,> 100 µM
same,TGI,NCI-H226 lung,> 100 µM
same,TGI,CAKI-1 renal,> 100 µM
same,TGI,RPMI-8226 leukemia,> 100 µM
CCCCCCCCCCCCNC(=O)NCC(OCC)OCC,TGI,A498 renal,> 10 µM
same,TGI,MOLT-4 leukemia,> 10 µM
same,TGI,NCI-H522 lung,> 10 µM
same,TGI,MDA-MB-435,> 10 µM
same,TGI,SK-OV-3 ovarian,> 10 µM
same,TGI,SR leukemia,> 10 µM
same,TGI,HOP-62 NSCLC,> 10 µM
same,TGI,NCI-H226 lung,> 10 µM
same,TGI,CAKI-1 renal,> 10 µM
same,TGI,RPMI-8226 leukemia,> 10 µM
CC1(C)CCc2c(cc3c(c2O)CCC(C)(C)O3)O1,TGI,A498 renal,> 100 µM
same,TGI,MOLT-4 leukemia,> 100 µM
same,TGI,HL-60(TB) leukemia,77.9 µM
same,TGI,NCI-H522 lung,> 100 µM
same,TGI,SK-OV-3 ovarian,> 100 µM
same,TGI,SR leukemia,> 100 µM
same,TGI,HOP-62 NSCLC,> 100 µM
same,TGI,NCI-H226 lung,> 100 µM
same,TGI,CAKI-1 renal,> 100 µM
Cc1c2c(n3c(nc4ccccc43)c1C#N)N(c1ccc(Cl)cc1)CC2,TGI,A498 renal,> 100 µM
same,TGI,HL-60(TB) leukemia,> 100 µM
same,TGI,NCI-H522 lung,> 100 µM
same,TGI,MDA-MB-435,> 100 µM
same,TGI,SK-OV-3 ovarian,> 100 µM
same,TGI,HOP-62 NSCLC,> 100 µM
same,TGI,NCI-H226 lung,> 100 µM
same,TGI,CAKI-1 renal,> 100 µM
Cc1ccc(OP2(=O)Oc3ccc4ccccc4c3CN2c2ccc(Cl)cc2)cc1C (configuration not stated),TGI,A498 renal,> 100 µM
same,TGI,MOLT-4 leukemia,> 100 µM
same,TGI,HL-60(TB) leukemia,> 100 µM
same,TGI,NCI-H522 lung,> 100 µM
same,TGI,SK-OV-3 ovarian,> 100 µM
same,TGI,HOP-62 NSCLC,> 100 µM
same,TGI,NCI-H226 lung,> 100 µM
same,TGI,CAKI-1 renal,> 100 µM
same,TGI,RPMI-8226 leukemia,> 100 µM
